Entries after “also recorded” stand apart in the source; their conditions may differ. Like-named read-outs stand apart in the source and are kept apart here. Residues, ends and D or L forms follow the SMILES beside them.
Experiments:
[1] = system: K. pneumoniae MS84 (disrupted mgrB); assay type: cell-based, Klebsiella pneumoniae
[2] = system: human RBCs
[3] = system: primary human T-cells
[4] = system: E. faecium AR0575; assay type: cell-based, Enterococcus faecium
[5] = system: N. gonorrhoeae H041; assay type: cell-based, Neisseria gonorrhoeae
[6] = system: mcr-1-positive E. coli FI-4531, E. coli J53 and K. pneumoniae 13883; assay type: cell-based, Escherichia coli; Klebsiella pneumoniae
[7] = system: S. aureus LAC; assay type: cell-based, Staphylococcus aureus
[8] = system: K. pneumoniae BA2664 (mutated pmrB); assay type: cell-based, Klebsiella pneumoniae
[9] = system: N. gonorrhoeae FA1090; assay type: cell-based, Neisseria gonorrhoeae
[10] = system: K. pneumoniae BL13802
[11] = system: E. cloacae BL36213; assay type: cell-based, Enterobacter cloacae
[12] = pH 7.4
[13] = system: CXCR3-expressing human T-cells; assay type: cell-based
[14] = system: B. anthracis Sterne 7702 bacilli (wild-type)
[15] = system: B. anthracis Sterne 7702 spores; assay type: cell-based, Bacillus anthracis
[16] = system: A. baumannii AR0304; assay type: cell-based, Acinetobacter baumannii
[17] = system: B. anthracis Sterne 7702 ΔftsX bacilli

For PESKAIKNLLKAVSKERSKRSP [P9], the “bacterial killing (in words)” value [1] was “but not peptide P9”, the hemolysis [2] was “negligible hemolysis” and the “percentage of dead cells” value [3] was “less than 5%”. The “bacterial killing (in words)” value [4] was “lost its capacity to kill any of the isolates examined; also recorded: little to no effect on the viability”, the “bacterial killing (in words)” value [5] was “reductions in bacterial viability were more modest” and the “bacterial killing (in words)” value [6] was “undiminished”. The “bacterial killing (in words)” value [7] was “lost its capacity to kill any of the isolates examined; also recorded: little to no effect on the viability”, the “bacterial killing (in words)” value [8] was “but not peptide P9” and the “bacterial killing (in words)” value [9] was “reductions in bacterial viability were more modest”. For the same compound, the “% survival (cfu/ml)” value [10] was “efficiently killed K. pneumoniae”, the “bacterial survival (RFU)” value [10] was “abolished the ability” and the “bacterial killing (in words)” value [11] was “lost its capacity to kill any of the isolates examined; also recorded: except E. cloacae”. For the same compound, the “secondary structure content: antiparallel β-sheet” value [12] was 12%, the “secondary structure content: turn” value [12] was 18% and the “secondary structure content: α-helix” value [12] was 35%.
For CXCL10, the “chemotactic index (CI)” value [13] was “approximately 6”.
In the case of TISVCPTLRRIVSC [P1scram], the “bacterial viability, % survival (RFU)” value [14] is reported as “abolished antimicrobial activity”.
For Melittin [reference compound], the hemolysis [2] was “high levels of hemolysis”.
For “PESKAIK(S5A)LLK(S5A)VSKERSKRSP (sidechain bridge or staple) [stapled peptide P9]”, the “viability of ungerminated spores compared to the initial inoculum” value [15] was “modest reductions in the viability of ungerminated spores”, the EC50 [14] was 8.5 ± 0.9 µM and the EC50 ([14]; read-out: EC50 values (as stated in running text)) was 4 to 5 µM. For the same compound, the “bacterial killing (in words)” value [1] was “killed colistin-resistant K. pneumoniae”, the hemolysis [2] was “neither pre-stapled nor stapled peptide P9 exerted hemolytic effects” and the “cytotoxic effects (dead cells)” value [3] was “greatly reduced”. The “percentage of dead cells” value [3] was ~45%, the “bacterial killing (in words)” value [4] was “particularly susceptible” and the “bacterial killing (in words)” value [16] was “particularly susceptible”. For the same compound, the “bacterial killing (in words)” value [5] was “particularly susceptible”, the “bacterial killing (in words)” value [6] was “killed colistin-resistant K. pneumoniae and E. coli strains” and the EC50 [17] was 9.6 ± 1 µM. The “bacterial killing (in words)” value [7] was “particularly susceptible”, the “bacterial killing (in words)” value [8] was “killed colistin-resistant K. pneumoniae” and the “bacterial killing (in words)” value [9] was “particularly susceptible”.
In the case of `CC[C@H](C)[C@H](NC(=O)[C@H](CO)NC(=O)[C@@H](NC(=O)[C@H](CS)NC(=O)[C@@H](NC(=O)[C@H](CS)NC(=O)[C@H](CCCNC(=N)N)NC(=O)[C@@H](NC(=O)[C@@H](NC(=O)[C@H](CCCNC(=N)N)NC(=O)[C@H](CO)NC(=O)[C@H](CC(C)C)NC(=O)[C@@H]1CCCN1C(=O)[C@@H](N)C(C)C)[C@@H](C)O)C(C)C)[C@@H](C)O)[C@@H](C)CC)C(N)=O` [P1] (H-VPLSRTVRCTCISI-NH2), the EC50 ([14]; Sterne 7702 bacilli (wild-type, 4 h)) is reported as 18.1 ± 0.3 µM, the hemolysis [2] is reported as “negligible hemolysis” and the “percentage of dead cells” value [3] is reported as “less than 5%”. For the same compound, the EC50 ([17]; Sterne 7702 ΔftsX bacilli, 4 h) was 53.1 ± 0.8 µM and the EC50 ([10]; BL13802, 2 h) was 13.4 ± 1.2 µM.
For EIIATMKKKGEKRCL [P5], the “decrease of heat-treated cfu counts versus initial spore inoculum” value [15] was ~200 fold, the “increase of cfu counts without heat treatment versus initial spore inoculum” value [15] was “more than 10 fold” and the hemolysis [2] was “negligible hemolysis”. The “percentage of dead cells” value [3] was “less than 5%” and the T-cell migration [13] was “did not elicit T-cell migration”.
“PESKAIK(S5A)LLK(S5A)VSKERSKRSP [pre-stapled peptide P9]” showed an EC50 [14] of 4.3 ± 0.4 µM and an EC50 [17] of 5 ± 1.2 µM.
In the case of KNLLKAVSKERSKRSP [P8], the “% survival (cfu/ml)” value [10] is reported as “efficiently killed K. pneumoniae”.
